Laboratory results published in ChEMBL document CHEMBL1135859, “Indinavir analogues with blocked metabolism sites as HIV protease inhibitors with improved pharmacological profiles and high potency against PI-resistant viral strains” (Bioorg Med Chem Lett, 2002).

How the values were obtained:
MT4 = assay: Concentration required to inhibit the spread of viral infection in MT-4 human T-lymphoid cells infected by the NL4-3 virus; type: functional; settings: read-out: CIC95
[1] = biological target: T1, Human immunodeficiency virus type 1 protease (Human immunodeficiency virus 1, UniProt Q72874); assay: Inhibitory concentration required to inhibit cleavage of a substrate by the wild-type HIV-1 Protease
[2] = system: Human immunodeficiency virus 1; assay: Concentration required to control the spread of HIV mutant strain K-60C; type: functional; settings: read-out: CIC95
[3] = Bioavailability in dog; type: ADME, organism-based, Canis lupus familiaris; settings: in vivo
[4] = system: Human immunodeficiency virus 1; assay: (§1) Concentration required to control the spread of HIV mutant strain WT; type: functional; settings: read-out: CIC95
[5] = system: Human immunodeficiency virus 1; assay: Concentration required to control the spread of HIV mutant strain V-18C; type: functional; settings: read-out: CIC95
[6] = Area under curve in dogs; type: ADME, organism-based, Canis lupus familiaris; settings: dog, in vivo
[7] = Half life in dogs; type: ADME, organism-based, Canis lupus familiaris; settings: dog, in vivo
[8] = Maximum concentration was determined; type: ADME, organism-based, Canis lupus familiaris; settings: dog, in vivo
[9] = biological target: T1, Human immunodeficiency virus type 1 protease; assay: Inhibitory concentration required to inhibit cleavage of a substrate by the wild-type HIV-1 protease enzyme
[10] = system: Human immunodeficiency virus 1; assay: Concentration required to control the spread of HIV mutant strain Q-60C; type: functional; settings: read-out: CIC95
[11] = system: Human immunodeficiency virus 1; assay: Concentration required to control the spread of HIV mutant strain 4X virus; type: functional; settings: read-out: CIC95
[12] = system: Human immunodeficiency virus 1; assay: as §1; settings: Human immunodeficiency virus 1, read-out: CIC95
[13] = Bioavailability; type: ADME, organism-based, Canis lupus familiaris; settings: dog, in vivo
[14] = Area under curve was determined; type: ADME, organism-based, Canis lupus familiaris; settings: dog, in vivo
[15] = Half life was determined; type: ADME, organism-based, Canis lupus familiaris; settings: dog, in vivo

SMILES | IC95 (MT4) | IC50 [1] | IC95 [2] | bioavailability [3] | IC95 [4] | IC95 [5] | AUC [6] | half-life [7] | Cmax [8] | IC50 [9] | IC95 [10] | IC95 [11] | IC95 [12] | bioavailability [13] | AUC [14] | half-life [15]
CC(C)(C)NC(=O)[C@@H]1CN(C(C)(C)c2cccnc2)CCN1C[C@@H](O)C[C@@H](Cc1ccccc1)C(=O)N[C@H]1c2ccccc2C[C@H]1O | 0.05 µM | 1.16 nM |  |  |  |  |  |  |  |  |  |  |  |  |  | 
CC(C)(C)NC(=O)[C@@H]1CN(C(C)(C)c2cc3cnccc3o2)CCN1C[C@@H](O)C[C@@H](Cc1ccccc1)C(=O)N[C@H]1c2ccccc2OC[C@H]1O | < 0.008 µM |  | 0.5 µM | 81% | < 0.008 µM | 0.25 µM | 7.43 µM·h | 62.4 min | 8.85 µM | 0.075 nM | 0.25 µM | 0.031 µM |  |  |  | 
CC(C)(C)NC(=O)[C@@H]1CN(C(C)(C)c2cc3cnccc3o2)CCN1C[C@@H](O)C[C@@H](Cc1ccccc1)C(=O)N[C@H]1c2ccccc2C[C@H]1O | 0.015 µM | 0.15 nM | > 1 µM | 44.3% | 0.015 µM | > 1 µM | 14.1 µM·h | 47 min | 16.6 µM |  | > 1 µM | 0.625 µM |  |  |  | 
CC(C)(C)NC(=O)[C@@H]1CN(Cc2cc3cnccc3o2)CCN1C[C@@H](O)C[C@@H](Cc1ccccc1)C(=O)N[C@H]1c2ccccc2C[C@H]1O | 0.015 µM | 0.23 nM |  |  |  |  |  |  |  |  |  |  |  |  |  | 
CC(C)(C)NC(=O)[C@@H]1CN(Cc2cccnc2)CCN1C[C@@H](O)C[C@@H](Cc1ccccc1)C(=O)N[C@H]1c2ccccc2C[C@H]1O.O [INDINAVIR] | 0.05 µM |  | > 3 µM |  |  | 1.5 µM |  |  |  |  | > 1 µM | 0.5 µM | 0.0505 µM | 71.6% | 12.5 µM·h | 38 min
